Assay results reported in ChEMBL document CHEMBL1152763, “Synthesis, cytotoxic activity, and DNA binding properties of antitumor cis-1,2-dihydroxy-1,2-dihydrobenzo[b]acronycine cinnamoyl esters” (Bioorg Med Chem, 2009).

test system: not listed separately; assay: (§1) Cytotoxicity against human KB-3-1 cells after 96 hrs by microculture tetrazolium assay; format: functional, cell-based; details: KB 3-1, 96 h

| Compound | IC50 [nM] |
| --- | --- |
| COc1ccc(/C=C/C(=O)O[C@@H]2[C@H](O)c3c(cc(OC)c4c(=O)c5cc6ccccc6cc5n(C)c34)OC2(C)C)cc1OC (racemic) | 80 |
| COc1cc2c(c3c1c(=O)c1cc4ccccc4cc1n3C)[C@@H](O)[C@@H](OC(=O)/C=C/c1ccc(C(F)(F)F)cc1)C(C)(C)O2 (racemic) | 20 |
| COc1cc2c(c3c1c(=O)c1cc4ccccc4cc1n3C)[C@@H](O)[C@@H](OC(=O)/C=C/c1ccc([N+](=O)[O-])cc1)C(C)(C)O2 (racemic) | 30 |
| COc1cc2c(c3c1c(=O)c1cc4ccccc4cc1n3C)[C@@H](OC(C)=O)[C@@H](OC(=O)/C=C/c1ccccc1Cl)C(C)(C)O2 (racemic) | 90 |
| COc1cc2c(c3c1c(=O)c1cc4ccccc4cc1n3C)[C@@H](O)[C@@H](OC(=O)/C=C/c1ccccc1Cl)C(C)(C)O2 (racemic) | 20 |
| COc1cc2c(c3c1c(=O)c1cc4ccccc4cc1n3C)[C@@H](O)[C@@H](OC(=O)/C=C/c1cccc(Br)c1)C(C)(C)O2 (racemic) | 20 |
| COc1cc2c(c3c1c(=O)c1cc4ccccc4cc1n3C)[C@@H](O)[C@@H](OC(=O)/C=C/c1cccc(Cl)c1)C(C)(C)O2 (racemic) | 20 |
| COc1cc2c(c3c1c(=O)c1cc4ccccc4cc1n3C)[C@@H](O)[C@@H](OC(C)=O)C(C)(C)O2 (racemic) | 160 |
| COc1cc2c(c3c1c(=O)c1cc4ccccc4cc1n3C)[C@@H](O)[C@@H](OC(=O)/C=C/c1ccc(Cl)c(Cl)c1)C(C)(C)O2 (racemic) | 6 |
| COc1cc2c(c3c1c(=O)c1cc4ccccc4cc1n3C)[C@@H](O)[C@@H](OC(=O)/C=C/c1ccc(Cl)cc1Cl)C(C)(C)O2 (racemic) | 6 |
| COc1ccc(/C=C/C(=O)O[C@@H]2[C@H](OC(C)=O)c3c(cc(OC)c4c(=O)c5cc6ccccc6cc5n(C)c34)OC2(C)C)cc1OC (racemic) | 150 |
| COc1cc2c(c3c1c(=O)c1cc4ccccc4cc1n3C)[C@@H](O)[C@@H](OC(=O)/C=C/c1ccccc1)C(C)(C)O2 (racemic) | 30 |
| COc1cc2c(c3c1c(=O)c1cc4ccccc4cc1n3C)[C@@H](OC(C)=O)[C@@H](OC(=O)/C=C/c1ccc([N+](=O)[O-])cc1)C(C)(C)O2 (racemic) | 140 |

test system: KB 3-1; assay: as §1; format: functional, cell-based; details: not given

| Compound | solubility |
| --- | --- |
| COc1cc2c(c3c1c(=O)c1cc4ccccc4cc1n3C)[C@@H](OC(C)=O)[C@@H](OC(=O)/C=C/c1cccc(Cl)c1)C(C)(C)O2 (racemic) | Not soluble |

test system: not listed separately; assay: Binding affinity to pBS plasmid 117 base-pair DNA fragment assessed as half life of DNA alkylation by gel shift assay; details: not given

| T1/2 [min] | Compound |
| --- | --- |
| 5 | COc1cc2c(c3c1c(=O)c1cc4ccccc4cc1n3C)[C@@H](O)[C@@H](OC(C)=O)C(C)(C)O2 (racemic) |
| 60 | COc1cc2c(c3c1c(=O)c1cc4ccccc4cc1n3C)[C@@H](O)[C@@H](OC(=O)/C=C/c1ccc(Cl)c(Cl)c1)C(C)(C)O2 (racemic) |
| 20 | COc1cc2c(c3c1c(=O)c1cc4ccccc4cc1n3C)[C@@H](O)[C@@H](OC(=O)/C=C/c1ccccc1)C(C)(C)O2 (racemic) |

test system: L1210; assay: Cytotoxicity against mouse L1210 cells after 48 hrs by microculture tetrazolium assay; format: functional, cell-based; details: Mus musculus, L1210, 48 h; read-out: IC50

| Compound | IC50 [nM] |
| --- | --- |
| COc1ccc(/C=C/C(=O)O[C@@H]2[C@H](O)c3c(cc(OC)c4c(=O)c5cc6ccccc6cc5n(C)c34)OC2(C)C)cc1OC (racemic) | 1100 |
| COc1cc2c(c3c1c(=O)c1cc4ccccc4cc1n3C)[C@@H](O)[C@@H](OC(=O)/C=C/c1ccc(C(F)(F)F)cc1)C(C)(C)O2 (racemic) | 90 |
| COc1cc2c(c3c1c(=O)c1cc4ccccc4cc1n3C)[C@@H](O)[C@@H](OC(=O)/C=C/c1ccc([N+](=O)[O-])cc1)C(C)(C)O2 (racemic) | 240 |
| COc1cc2c(c3c1c(=O)c1cc4ccccc4cc1n3C)[C@@H](OC(C)=O)[C@@H](OC(=O)/C=C/c1ccccc1Cl)C(C)(C)O2 (racemic) | 600 |
| COc1cc2c(c3c1c(=O)c1cc4ccccc4cc1n3C)[C@@H](O)[C@@H](OC(=O)/C=C/c1ccccc1Cl)C(C)(C)O2 (racemic) | 50 |
| COc1cc2c(c3c1c(=O)c1cc4ccccc4cc1n3C)[C@@H](O)[C@@H](OC(=O)/C=C/c1cccc(Br)c1)C(C)(C)O2 (racemic) | 80 |
| COc1cc2c(c3c1c(=O)c1cc4ccccc4cc1n3C)[C@@H](O)[C@@H](OC(=O)/C=C/c1cccc(Cl)c1)C(C)(C)O2 (racemic) | 60 |
| COc1cc2c(c3c1c(=O)c1cc4ccccc4cc1n3C)[C@@H](O)[C@@H](OC(C)=O)C(C)(C)O2 (racemic) | 620 |
| COc1cc2c(c3c1c(=O)c1cc4ccccc4cc1n3C)[C@@H](O)[C@@H](OC(=O)/C=C/c1ccc(Cl)c(Cl)c1)C(C)(C)O2 (racemic) | 35 |
| COc1cc2c(c3c1c(=O)c1cc4ccccc4cc1n3C)[C@@H](O)[C@@H](OC(=O)/C=C/c1ccc(Cl)cc1Cl)C(C)(C)O2 (racemic) | 35 |
| COc1ccc(/C=C/C(=O)O[C@@H]2[C@H](OC(C)=O)c3c(cc(OC)c4c(=O)c5cc6ccccc6cc5n(C)c34)OC2(C)C)cc1OC (racemic) | 900 |
| COc1cc2c(c3c1c(=O)c1cc4ccccc4cc1n3C)[C@@H](O)[C@@H](OC(=O)/C=C/c1ccccc1)C(C)(C)O2 (racemic) | 120 |
| COc1cc2c(c3c1c(=O)c1cc4ccccc4cc1n3C)[C@@H](OC(C)=O)[C@@H](OC(=O)/C=C/c1ccc([N+](=O)[O-])cc1)C(C)(C)O2 (racemic) | 500 |

same assay, conditions: l1210

| Compound | IC50 |
| --- | --- |
| COc1cc2c(c3c1c(=O)c1cc4ccccc4cc1n3C)[C@@H](OC(C)=O)[C@@H](OC(=O)/C=C/c1cccc(Cl)c1)C(C)(C)O2 (racemic) | Insoluble |

test system: MC-38; assay: Toxicity in mouse Colon 38 cells xenografted B6D2F1 mouse assessed as inhibition of tumor growth at 4 mg/kg, iv administered twice daily; format: functional, organism-based; design: dose 4 mg/kg; details: not given

| Compound | Activity |
| --- | --- |
| COc1cc2c(c3c1c(=O)c1cc4ccccc4cc1n3C)[C@@H](O)[C@@H](OC(=O)/C=C/c1ccc(Cl)c(Cl)c1)C(C)(C)O2 (racemic) | Toxic |

test system: MC-38; assay: Antitumor activity against mouse Colon 38 cells xenografted B6D2F1 mouse assessed as inhibition of tumor growth at 2 mg/kg, iv administered twice daily; format: functional; details: not given

| Compound | inhibition in vivo at 2 mg/kg [%] |
| --- | --- |
| COc1cc2c(c3c1c(=O)c1cc4ccccc4cc1n3C)[C@@H](O)[C@@H](OC(=O)/C=C/c1ccc(Cl)c(Cl)c1)C(C)(C)O2 (racemic) | 90 |
